The results in this text go back to ChEMBL document CHEMBL1201862, “PubChem BioAssay data set” (2004).

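Growth conditions: 96-well plates. Treatment: test compound, 48 hours, 5 concentrations. Analysis: linear interpolation between bracketing concentrations; unreached endpoints set to highest concentration. GI50: concentration for 50% inhibition of growth.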 Activity calls are given as the source filed them. Rule as the data show it: active = GI50 up to about 1.1 µM and inactive = higher. Where only a bound is given, the exact number is not on record here.

Test systems include U-251; SK-OV-3; SW-620; NCI-H460; A549; COLO 205; UACC-257; CCRF-CEM; SNB-19; HT-29; TK-10; NCI-H23; HCC 2998; MCF7; KM-20L2; OVCAR-5; MDA-N; MDA-MB-435; NCI-H226; BT-549.
Common to all, as to test: inhibition of tumour cell growth, NCI panel, 48 h

In the case of `C/C(=N\NC(=S)N1CCC(N2CCCCC2)CC1)c1ccccn1`, the GI50 is 3.8 µM (inactive) with U-251; 4.93 µM (inactive) in the assay on SK-OV-3; 3.1 µM (inactive) in the assay with SW-620; 2.73 µM (inactive) in the assay with NCI-H460; 3.15 µM (inactive) in the assay with A549; 2.8 µM (inactive) with COLO 205. The GI50 was 2.9 µM (inactive) in the assay on UACC-257; 0.661 µM (active) with CCRF-CEM; 3.7 µM (inactive) in the assay with SNB-19; 3.17 µM (inactive) with HT-29; 2.38 µM (inactive) in the assay with TK-10; 3.29 µM (inactive) with NCI-H23. The GI50 in the assay with HCC 2998 is 11.7 µM (inactive); in the assay with MCF7 it was 2.87 µM (inactive); in the assay on KM-20L2, 4.46 µM (inactive); in the assay on OVCAR-5, 4.11 µM (inactive); in the assay with MDA-N, 2.49 µM (inactive); in the assay on MDA-MB-435, 2.4 µM (inactive).

For the molecule `OCC(O)C(O)C(O)c1nn(-c2ccccc2)c2nc3cc(Cl)c(Cl)cc3nc12` (stereo unspecified), the GI50 was 70.5 µM (inactive) with U-251; > 100 µM (inactive) with SK-OV-3; 88.9 µM (inactive) in the assay on SW-620; 44.1 µM (inactive) in the assay on NCI-H460; 26.7 µM (inactive) in the assay on A549; 44.1 µM (inactive) in the assay on COLO 205. Moreover, the GI50 was 63.1 µM (inactive) with UACC-257; 40.5 µM (inactive) in the assay on CCRF-CEM; 74.6 µM (inactive) in the assay with SNB-19; 24.4 µM (inactive) in the assay with HT-29; 36.1 µM (inactive) with TK-10; 49.8 µM (inactive) with NCI-H23. For the same molecule, the GI50 with HCC 2998 is 32.9 µM (inactive); in the assay with KM-20L2 it was 37.2 µM (inactive); in the assay with OVCAR-5, 28.6 µM (inactive); in the assay on NCI-H226, 36.5 µM (inactive).

As to `Nc1c(C(=O)Nc2ccccc2)[n+]([O-])c2ccccc2[n+]1[O-]`, the GI50 in the assay with U-251 was 12.9 µM (inactive); in the assay with SK-OV-3, > 100 µM (inactive); with SW-620, 15.2 µM (inactive); in the assay with NCI-H460, 14.9 µM (inactive); with A549, 25.1 µM (inactive); with COLO 205 it was 15.5 µM (inactive). Moreover, the GI50 is 17.9 µM (inactive) in the assay on UACC-257; 19.1 µM (inactive) in the assay on CCRF-CEM; 15.5 µM (inactive) in the assay on SNB-19; 16.6 µM (inactive) with HT-29; 24.7 µM (inactive) in the assay with TK-10; 12.5 µM (inactive) in the assay on NCI-H23. Moreover, the GI50 is 17.6 µM (inactive) in the assay with HCC 2998, 17.7 µM (inactive) in the assay on KM-20L2, 22.5 µM (inactive) with OVCAR-5 and 23.9 µM (inactive) in the assay with NCI-H226.

With `CCN(CC)CCCC(C)Nc1ccnc2ccc3nn(C)nc3c12` (stereo unspecified), the GI50 with U-251 was 65.6 µM (inactive); in the assay with SK-OV-3, > 100 µM (inactive); in the assay with SW-620, 22.3 µM (inactive); with NCI-H460 it was 32.8 µM (inactive); in the assay with A549, 47.9 µM (inactive); in the assay with COLO 205, 28.6 µM (inactive). The GI50 is 36 µM (inactive) in the assay with UACC-257; 25.1 µM (inactive) with CCRF-CEM; > 100 µM (inactive) with SNB-19; 26.5 µM (inactive) in the assay on HT-29; > 100 µM (inactive) with TK-10; > 100 µM (inactive) with NCI-H23. In addition, the GI50 in the assay with HCC 2998 is 40.2 µM (inactive); in the assay on KM-20L2, 33 µM (inactive); with OVCAR-5, > 100 µM (inactive); in the assay with NCI-H226, 39.6 µM (inactive).

`CN(C)CCNC(=O)c1cccc2nc3c(ccc4ccccc43)nc12`: the GI50 in the assay with U-251 is 1.47 µM (inactive); with SK-OV-3 it was 5.42 µM (inactive); in the assay with SW-620, 1.1 µM (active); with BT-549, 10.6 µM (inactive); in the assay with NCI-H460, 0.479 µM (active); in the assay on A549, 1.21 µM (inactive). Also, the GI50 in the assay on COLO 205 was 1.6 µM (inactive); in the assay on UACC-257, 1.74 µM (inactive); in the assay with CCRF-CEM, 1.16 µM (inactive); in the assay on SNB-19 it was 5.06 µM (inactive); in the assay with HT-29 it was 1.56 µM (inactive); in the assay with TK-10, 7.93 µM (inactive). Further, the GI50 with NCI-H23 was 3.9 µM (inactive); in the assay with HCC 2998, 1.98 µM (inactive); in the assay on MCF7, 0.476 µM (active); in the assay on KM-20L2, 1.51 µM (inactive); in the assay on OVCAR-5, 4.55 µM (inactive); with MDA-N, 1.72 µM (inactive). Also, the GI50 is 2.9 µM (inactive) in the assay with NCI-H226 and 3.33 µM (inactive) in the assay on MDA-MB-435.
